Several values for one entry are separate records, joined by “and”; a condition that tells them apart may be missing. Identical values can stand only once. Toxic doses and inconclusive results are not listed. Rule for the calls: active = survival T/C of 150% or more; inactive = T/C below 125% in these data.
Tested on: P388 leukemia ip, CD2F1 mice, survival T/C
Test: NCI In Vivo Anticancer Drug Screen. Data for tumor model P388 Leukemia (intraperitoneal) in CD2F1 (CDF1) mice
Conditions: endpoint: median survival time, higher = longer survival
How it was run: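 Mice carrying the transplanted tumor received test compound or vehicle. Survival was recorded in each group, and the value is the treated-group measurement divided by that of the vehicle-treated control group.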

[1] = dose: 12.5 mg/kg/injection, schedule: Q01DX009 (ip), vehicle: saline with Tween-80
[2] = dose: 25.0 mg/kg/injection, schedule: Q01DX009 (ip), vehicle: saline with Tween-80
[3] = dose: 50.0 mg/kg/injection, schedule: Q01DX009 (ip), vehicle: saline with Tween-80
[4] = dose: 100.0 mg/kg/injection, schedule: Q01DX009 (ip), vehicle: saline with Tween-80
[5] = dose: 200.0 mg/kg/injection, schedule: Q01DX009 (ip), vehicle: saline with Tween-80
[6] = dose: 100.0 mg/kg/injection, schedule: Q01DX001 (ip), vehicle: Klucel (hydroxypropylcellulose) (HPC)
[7] = dose: 200.0 mg/kg/injection, schedule: Q01DX001 (ip), vehicle: Klucel (hydroxypropylcellulose) (HPC)
[8] = dose: 400.0 mg/kg/injection, schedule: Q01DX001 (ip), vehicle: Klucel (hydroxypropylcellulose) (HPC)
[9] = dose: 100.0 mg/kg/injection, schedule: Q01DX001 (ip), vehicle: saline with Tween-80
[10] = dose: 200.0 mg/kg/injection, schedule: Q01DX001 (ip), vehicle: saline with Tween-80
[11] = dose: 400.0 mg/kg/injection, schedule: Q01DX001 (ip), vehicle: saline with Tween-80
[12] = dose: 50.0 mg/kg/injection, schedule: Q01DX005 (ip), vehicle: saline with Tween-80
[13] = dose: 100.0 mg/kg/injection, schedule: Q01DX005 (ip), vehicle: saline with Tween-80
[14] = dose: 200.0 mg/kg/injection, schedule: Q01DX005 (ip), vehicle: saline with Tween-80
[15] = dose: 60.0 mg/kg/injection, schedule: Q01DX005 (ip), vehicle: saline
[16] = dose: 25.0 mg/kg/injection, schedule: Q01DX009 (ip), vehicle: Klucel (hydroxypropylcellulose) (HPC)
[17] = dose: 50.0 mg/kg/injection, schedule: Q01DX009 (ip), vehicle: Klucel (hydroxypropylcellulose) (HPC)
[18] = dose: 100.0 mg/kg/injection, schedule: Q01DX009 (ip), vehicle: Klucel (hydroxypropylcellulose) (HPC)

Measured: T/C

c1cc(Nc2ccc(Nc3ccc(CN4CCCCC4)cc3)cc2)ccc1CN1CCCCC1
inactive: dose: 12.5 mg/kg/injection, schedule: Q01DX009 (ip), vehicle: saline + Tween-80 + alcohol 105 % of control | [1] 103 % of control | dose: 25.0 mg/kg/injection, schedule: Q01DX009 (ip), vehicle: saline + Tween-80 + alcohol 111 % of control and 114 % of control | [2] 107 % of control | dose: 50.0 mg/kg/injection, schedule: Q01DX009 (ip), vehicle: saline + Tween-80 + alcohol 114 % of control and 115 % of control | [3] 111 % of control | dose: 100.0 mg/kg/injection, schedule: Q01DX009 (ip), vehicle: saline + Tween-80 + alcohol 117 % of control and 118 % of control | [4] 99 % of control | dose: 200.0 mg/kg/injection, schedule: Q01DX009 (ip), vehicle: saline + Tween-80 + alcohol 124 % of control | [5] 106 % of control | dose: 400.0 mg/kg/injection, schedule: Q01DX009 (ip), vehicle: saline with Tween-80 114 % of control

Clc1ccc(C[P+](c2ccccc2)(c2ccccc2)c2ccccc2)c(Cl)c1
inactive: dose: 1.25 mg/kg/injection, schedule: Q01DX009 (ip), vehicle: saline sonified 109 % of control | dose: 2.5 mg/kg/injection, schedule: Q01DX009 (ip), vehicle: saline sonified 109 % of control | dose: 5.0 mg/kg/injection, schedule: Q01DX009 (ip), vehicle: saline sonified 118 % of control

CCc1nnc2cccc(Cl)n12
inactive: [6] 100 % of control | [7] 109 % of control | [8] 100 % of control

O=C1CSC(c2ccc(Cl)cc2)N1c1ccc(N2C(=O)CSC2c2ccc(Cl)cc2)cc1 (stereo not drawn)
inactive: [9] 94 % of control | [10] 91 % of control | [11] 91 % of control

OCC1OC(n2ccc3c(NO)ncnc32)C(O)C1O (stereo not drawn)
inactive: dose: 0.46 mg/kg/injection, schedule: Q01DX005 (ip), vehicle: Klucel (hydroxypropylcellulose) (HPC) 112 % of control

Brc1ccc(-n2c(-c3ccccc3)cs/c2=N\Nc2nnc(-c3ccccc3)c(-c3ccccc3)n2)cc1
inactive: [12] 101 % of control | [13] 87 % of control | [14] 92 % of control

[N-]=[N+]=NCc1cnnn1C1OC(CO)C(O)C1O (stereo not drawn)
inactive: [15] 102 % of control | dose: 120.0 mg/kg/injection, schedule: Q01DX005 (ip), vehicle: saline 115 % of control | dose: 240.0 mg/kg/injection, schedule: Q01DX005 (ip), vehicle: saline 99 % of control

CC(Cl)C(=O)Nc1cc2ccccc2oc1=O (stereo not drawn)
inactive: dose: 60.0 mg/kg/injection, schedule: Q01DX005 (ip), vehicle: saline with Tween-80 106 % of control | dose: 120.0 mg/kg/injection, schedule: Q01DX005 (ip), vehicle: saline with Tween-80 94 % of control | dose: 240.0 mg/kg/injection, schedule: Q01DX005 (ip), vehicle: saline with Tween-80 93 % of control

CC/C(=C(/CC)c1ccc(OCC(=O)N/N=C2/C=C3CCC4C(CCC5(C)C(O)CCC45)C3(C)CC2)cc1)c1ccc(OCC(=O)N/N=C2\C=C3CCC4C(CCC5(C)C(O)CCC45)C3(C)CC2)cc1 (stereo not drawn)
inactive: dose: 50.0 mg/kg/injection, schedule: Q01DX001 (ip), vehicle: Klucel (hydroxypropylcellulose) (HPC) 95 % of control | [6] 87 % of control

O=c1n(CC2CC3(Cl)C(Cl)=C(Cl)C2(Cl)C3(Cl)Cl)c(=O)n(CC2CC3(Cl)C(Cl)=C(Cl)C2(Cl)C3(Cl)Cl)c(=O)n1CC1CC2(Cl)C(Cl)=C(Cl)C1(Cl)C2(Cl)Cl (stereo not drawn)
inactive: [1] 101 % of control | [2] 95 % of control | [3] 87 % of control and 95 % of control | [5] 97 % of control

Cc1ccc(S(=O)(=O)N(Cl)Cl)cc1
inactive: dose: 6.25 mg/kg/injection, schedule: Q01DX009 (ip), vehicle: Klucel (hydroxypropylcellulose) (HPC) 111 % of control | dose: 12.5 mg/kg/injection, schedule: Q01DX009 (ip), vehicle: Klucel (hydroxypropylcellulose) (HPC) 99 % of control | [16] 108 % of control

CCCCN1C(=O)/C(=C/c2ccccc2OC)SC1=S
inactive: dose: 50.0 mg/kg/injection, schedule: Q01DX005 (ip), vehicle: Klucel (hydroxypropylcellulose) (HPC) 98 % of control | dose: 100.0 mg/kg/injection, schedule: Q01DX005 (ip), vehicle: Klucel (hydroxypropylcellulose) (HPC) 94 % of control

COc1cc2c(cc1C(C)(C)c1ccccc1)OCO2
inactive: [12] 99 % of control | [13] 100 % of control | [14] 101 % of control

O=C1NC(Cc2ccccc2)C(=O)N2CSCC12 (stereo not drawn)
inactive: [6] 94 % of control | [7] 99 % of control | [8] 105 % of control

NC(=O)N/N=C1\CC2C=CC1/C=C\C=C\2 (stereo not drawn)
inactive: [9] 100 % of control | [10] 106 % of control | [11] 106 % of control

CN(C)c1ccc(C(O)Cc2ccc3ccccc3n2)cc1 (stereo not drawn)
inactive: [17] 113 % of control | [18] 92 % of control | dose: 200.0 mg/kg/injection, schedule: Q01DX009 (ip), vehicle: Klucel (hydroxypropylcellulose) (HPC) 92 % of control

Cc1c(C)c2ccc(OCCCN3CCN(Cc4ccc(Cl)cc4)CC3)cc2oc1=O
inactive: dose: 50.0 mg/kg/injection, schedule: Q01DX009 (ip), vehicle: suspension in saline 88 % of control | dose: 100.0 mg/kg/injection, schedule: Q01DX009 (ip), vehicle: suspension in saline 91 % of control

COc1cc(/C=C/c2ccc(N(C)C)cc2)oc(=O)c1
inactive: dose: 100.0 mg/kg/injection, schedule: Q04DX002 (ip), vehicle: Klucel (hydroxypropylcellulose) (HPC) 101 % of control | dose: 200.0 mg/kg/injection, schedule: Q04DX002 (ip), vehicle: Klucel (hydroxypropylcellulose) (HPC) 98 % of control | dose: 400.0 mg/kg/injection, schedule: Q04DX002 (ip), vehicle: Klucel (hydroxypropylcellulose) (HPC) 99 % of control

O=c1oc(-c2cc([N+](=O)[O-])ccc2Cl)nc2ccccc12
inactive: dose: 33.0 mg/kg/injection, schedule: Q04DX003 (ip), vehicle: saline with Tween-80 100 % of control | dose: 50.0 mg/kg/injection, schedule: Q04DX003 (ip), vehicle: saline with Tween-80 100 % of control | dose: 75.0 mg/kg/injection, schedule: Q04DX003 (ip), vehicle: saline with Tween-80 99 % of control

O=[N+]([O-])CC(OCCCCCO)C(Cl)(Cl)Cl (stereo not drawn)
inactive: [3] 95 % of control | [4] 100 % of control | [5] 86 % of control

NC(=S)N/N=C/c1cc(Cl)ccc1O
inactive: dose: 100.0 mg/kg/injection, schedule: Q04DX003 (ip), vehicle: saline with Tween-80 99 % of control | dose: 200.0 mg/kg/injection, schedule: Q04DX003 (ip), vehicle: saline with Tween-80 98 % of control | dose: 400.0 mg/kg/injection, schedule: Q04DX003 (ip), vehicle: saline with Tween-80 93 % of control

C=C1C(=O)C23[C@H](O)C1CC[C@H]2[C@]12COC3(O)[C@@H](O)[C@@H]1C(C)(C)CC[C@@H]2O
inactive: dose: 6.25 mg/kg/injection, schedule: Q01DX009 (ip), vehicle: saline with Tween-80 113 % of control | dose: 8.0 mg/kg/injection, schedule: Q01DX009 (ip), vehicle: saline with Tween-80 106 % of control | dose: 9.0 mg/kg/injection, schedule: Q01DX009 (ip), vehicle: saline with Tween-80 117 % of control | [1] 104 % of control | [2] 104 % of control | dose: 27.0 mg/kg/injection, schedule: Q01DX009 (ip), vehicle: saline with Tween-80 121 % of control

O=C1CCN=C2C(=O)c3ccccc3C(O)=C12
inactive: [16] 115 % of control | [17] 123 % of control | [18] 121 % of control

CC(=O)N1NC(=O)c2c(c3cc(OCc4ccccc4)ccc3n2C)C1C(C)C (stereo not drawn)
inactive: dose: 30.0 mg/kg/injection, schedule: Q04DX002 (ip), vehicle: Klucel (hydroxypropylcellulose) (HPC) 98 % of control | dose: 60.0 mg/kg/injection, schedule: Q04DX002 (ip), vehicle: Klucel (hydroxypropylcellulose) (HPC) 96 % of control | dose: 120.0 mg/kg/injection, schedule: Q04DX002 (ip), vehicle: Klucel (hydroxypropylcellulose) (HPC) 96 % of control

Cc1ccc2nc(N3C(=O)CSC3=S)sc2c1
inactive: [17] 100 % of control | [18] 96 % of control

CN(C)CCNC(=Cc1ccc2ccccc2[n+]1C)NCCN(C)C
inactive: dose: 30.0 mg/kg/injection, schedule: Q01DX005 (ip), vehicle: saline 97 % of control | [15] 101 % of control
